Test results: PubChem BioAssay AID1963862 (Molecular Pharmacology Branch, DTP, NCI, 2024)

Test system: KRAS patient-derived spheroids with HUVEC/MSC, viability
Test: Anticancer human tumor 941728-121-R-J1-PDC patient-derived lung adenocarcinoma cell line growth inhibition [KRAS2]
Settings: for IC50: curve of first compound; for viability, T/C: stronger effect = lower value; active means viability on the fitted dose curve at most 10% of control; inactive means the rest
Summary of the method: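 KRAS-mutant tumor cells were grown as spheroids with HUVEC endothelial cells and human MSCs as stroma. Targeted agents were tested alone and with KRAS pathway inhibitors. Doses started at or near clinical Cmax, or 10 microM, descending half-log.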

[1] = second compound 0.1 µM, first compound 0.000316 µM
[2] = second compound 0.1 µM, first compound 0.001 µM
[3] = second compound 0.1 µM, first compound 0.00316 µM
[4] = second compound 0.1 µM, first compound 0.01 µM
[5] = second compound 0.1 µM, first compound 0.0316 µM
[6] = second compound 0.316 µM, first compound 0.000316 µM
[7] = second compound 0.316 µM, first compound 0.001 µM
[8] = second compound 0.316 µM, first compound 0.00316 µM
[9] = second compound 0.316 µM, first compound 0.01 µM
[10] = second compound 0.316 µM, first compound 0.0316 µM
[11] = second compound 1 µM, first compound 0.000316 µM
[12] = second compound 1 µM, first compound 0.001 µM
[13] = second compound 1 µM, first compound 0.00316 µM
[14] = second compound 1 µM, first compound 0.01 µM
[15] = second compound 1 µM, first compound 0.0316 µM
[16] = second compound 3.16 µM, first compound 0.000316 µM
[17] = second compound 3.16 µM, first compound 0.001 µM
[18] = second compound 3.16 µM, first compound 0.00316 µM
[19] = second compound 3.16 µM, first compound 0.01 µM
[20] = second compound 3.16 µM, first compound 0.0316 µM
[21] = second compound 10 µM, first compound 0.000316 µM
[22] = second compound 10 µM, first compound 0.001 µM
[23] = second compound 10 µM, first compound 0.00316 µM
[24] = second compound 10 µM, first compound 0.01 µM
[25] = second compound 10 µM, first compound 0.0316 µM
[26] = second compound 0.1 µM, first compound 0.1 µM
[27] = second compound 0.316 µM, first compound 0.1 µM
[28] = second compound 1 µM, first compound 0.1 µM
[29] = second compound 3.16 µM, first compound 0.1 µM
[30] = second compound 10 µM, first compound 0.1 µM
[31] = second compound 0.1 µM, first compound 0.316 µM
[32] = second compound 0.1 µM, first compound 1 µM
[33] = second compound 0.1 µM, first compound 3.16 µM
[34] = second compound 0.1 µM, first compound 10 µM
[35] = second compound 0.316 µM, first compound 0.316 µM
[36] = second compound 0.316 µM, first compound 1 µM
[37] = second compound 0.316 µM, first compound 3.16 µM
[38] = second compound 0.316 µM, first compound 10 µM
[39] = second compound 1 µM, first compound 0.316 µM
[40] = second compound 1 µM, first compound 1 µM
[41] = second compound 1 µM, first compound 3.16 µM
[42] = second compound 1 µM, first compound 10 µM
[43] = second compound 3.16 µM, first compound 0.316 µM
[44] = second compound 3.16 µM, first compound 1 µM
[45] = second compound 3.16 µM, first compound 3.16 µM
[46] = second compound 3.16 µM, first compound 10 µM
[47] = second compound 10 µM, first compound 0.316 µM
[48] = second compound 10 µM, first compound 1 µM
[49] = second compound 10 µM, first compound 3.16 µM
[50] = second compound 10 µM, first compound 10 µM
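Further: spheroids exposed to agents for seven days before readout.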

CC(=O)Nc1cccc(-n2c(=O)n(C3CC3)c(=O)c3c(Nc4ccc(I)cc4F)n(C)c(=O)c(C)c32)c1 + COc1cc2nc(C)nc(NC(C)c3cc(N)cc(C(F)(F)F)c3)c2cc1OC1CCOC1
0.000129 µM: IC50 (second compound 0.1 µM)
active: viability, T/C (second compound 10 µM, first compound 0.0001 µM) 6.11% | viability, T/C [21] 3.95% | viability, T/C [22] 3.66% | viability, T/C [23] 2.67% | viability, T/C [24] 2.71% | viability, T/C [25] 2.71%
inactive: viability, T/C (second compound 0.1 µM, first compound 0.0001 µM) 51.3% | viability, T/C [1] 47.6% | viability, T/C [2] 39.7% | viability, T/C [3] 39.5% | viability, T/C [4] 39.4% | viability, T/C [5] 29.4% | viability, T/C (second compound 0.316 µM, first compound 0.0001 µM) 44.3% | viability, T/C [6] 40.5% | viability, T/C [7] 40% | viability, T/C [8] 35.8% | viability, T/C [9] 36.3% | viability, T/C [10] 29.9% | viability, T/C (second compound 1 µM, first compound 0.0001 µM) 41.1% | viability, T/C [11] 40.8% | viability, T/C [12] 38.1% | viability, T/C [13] 30.6% | viability, T/C [14] 31.1% | viability, T/C [15] 25.7% | viability, T/C (second compound 3.16 µM, first compound 0.0001 µM) 32% | viability, T/C [16] 29% | viability, T/C [17] 24.6% | viability, T/C [18] 18.8% | viability, T/C [19] 21.8% | viability, T/C [20] 17.7%
< 0.0001 µM: IC50 (second compound 0.316 µM) | IC50 (second compound 1 µM) | IC50 (second compound 3.16 µM) | IC50 (second compound 10 µM)

CN(C)C/C=C/C(=O)Nc1cc2c(Nc3ccc(F)c(Cl)c3)ncnc2cc1O[C@H]1CCOC1 + COc1cc2nc(C)nc(NC(C)c3cc(N)cc(C(F)(F)F)c3)c2cc1OC1CCOC1
0.000885 µM: IC50 (second compound 0.1 µM)
inactive: viability, T/C [1] 60.5% | viability, T/C [2] 50.3% | viability, T/C [3] 42.9% | viability, T/C [4] 44.4% | viability, T/C [5] 43.4% | viability, T/C [26] 49.3% | viability, T/C [6] 37.2% | viability, T/C [7] 32.5% | viability, T/C [8] 32.5% | viability, T/C [9] 30.5% | viability, T/C [10] 31.1% | viability, T/C [27] 36.4% | viability, T/C [11] 40.6% | viability, T/C [12] 34.3% | viability, T/C [13] 28.9% | viability, T/C [14] 34.3% | viability, T/C [15] 33.3% | viability, T/C [28] 34.4% | viability, T/C [16] 20.1% | viability, T/C [17] 20.4% | viability, T/C [18] 18.3% | viability, T/C [19] 15.4% | viability, T/C [20] 14.8% | viability, T/C [29] 15.8% | viability, T/C [21] 19.4% | viability, T/C [22] 15.2% | viability, T/C [23] 16% | viability, T/C [24] 14.6% | viability, T/C [25] 14.7% | viability, T/C [30] 16.4%
< 0.000316 µM: IC50 (second compound 0.316 µM) | IC50 (second compound 1 µM) | IC50 (second compound 3.16 µM) | IC50 (second compound 10 µM)

COC(=O)c1ccc2c(C(=Nc3ccc(N(C)C(=O)CN4CCN(C)CC4)cc3)c3ccccc3)c(O)[nH]c2c1 + COc1cc2nc(C)nc(NC(C)c3cc(N)cc(C(F)(F)F)c3)c2cc1OC1CCOC1
10 µM: IC50 (second compound 0.1 µM)
inactive: viability, T/C [5] 108% | viability, T/C [26] 45.3% | viability, T/C [31] 46.4% | viability, T/C [32] 70.2% | viability, T/C [33] 46.2% | viability, T/C [34] 48.5% | viability, T/C [10] 45.5% | viability, T/C [27] 43.4% | viability, T/C [35] 40.5% | viability, T/C [36] 49.7% | viability, T/C [37] 42.7% | viability, T/C [38] 42.9% | viability, T/C [15] 42.4% | viability, T/C [28] 40.9% | viability, T/C [39] 37% | viability, T/C [40] 41.6% | viability, T/C [41] 35.1% | viability, T/C [42] 42.2% | viability, T/C [20] 43.5% | viability, T/C [29] 36.7% | viability, T/C [43] 41.7% | viability, T/C [44] 42.6% | viability, T/C [45] 22.6% | viability, T/C [25] 26.2% | viability, T/C [30] 21.7% | viability, T/C [47] 21.1% | viability, T/C [48] 16.9%
< 0.0316 µM: IC50 (second compound 0.316 µM) | IC50 (second compound 1 µM) | IC50 (second compound 3.16 µM) | IC50 (second compound 10 µM)
active: viability, T/C [46] 0.49% | viability, T/C [49] 0.62% | viability, T/C [50] 1.04%

COc1cc(Nc2ncc3c(n2)-c2ccc(Cl)cc2C(c2c(F)cccc2OC)=NC3)ccc1C(=O)O + COc1cc2nc(C)nc(NC(C)c3cc(N)cc(C(F)(F)F)c3)c2cc1OC1CCOC1
inactive: viability, T/C [5] 52.4% | viability, T/C [26] 44.5% | viability, T/C [31] 44.1% | viability, T/C [32] 47.7% | viability, T/C [33] 42.1% | viability, T/C [34] 42.1% | viability, T/C [10] 41% | viability, T/C [27] 42.3% | viability, T/C [35] 44.1% | viability, T/C [36] 40.2% | viability, T/C [37] 40.7% | viability, T/C [38] 37.3% | viability, T/C [15] 34.7% | viability, T/C [28] 38% | viability, T/C [39] 36.5% | viability, T/C [40] 38.2% | viability, T/C [41] 33.9% | viability, T/C [42] 31.4% | viability, T/C [20] 34.2% | viability, T/C [29] 32.6% | viability, T/C [43] 36.6% | viability, T/C [44] 30.6% | viability, T/C [45] 23% | viability, T/C [46] 19.7% | viability, T/C [25] 12.4% | viability, T/C [30] 14.3%
active: viability, T/C [47] 7.81% | viability, T/C [48] 4.39% | viability, T/C [49] 6.63% | viability, T/C [50] 3.43%
< 0.0316 µM: IC50 (second compound 0.1 µM) | IC50 (second compound 0.316 µM) | IC50 (second compound 1 µM) | IC50 (second compound 3.16 µM) | IC50 (second compound 10 µM)

COc1cc2nccc(Oc3ccc(NC(=O)C4(C(=O)Nc5ccc(F)cc5)CC4)cc3)c2cc1OC + COc1cc2nc(C)nc(NC(C)c3cc(N)cc(C(F)(F)F)c3)c2cc1OC1CCOC1
< 0.0316 µM: IC50 (second compound 0.316 µM) | IC50 (second compound 1 µM) | IC50 (second compound 3.16 µM) | IC50 (second compound 10 µM)
active: viability, T/C [30] 2.98% | viability, T/C [47] 1.83% | viability, T/C [48] 0.25% | viability, T/C [49] 0.13% | viability, T/C [50] 15.1%
inactive: viability, T/C [5] 57.4% | viability, T/C [26] 55.2% | viability, T/C [31] 38.9% | viability, T/C [32] 25.9% | viability, T/C [33] 31.4% | viability, T/C [34] 57.4% | viability, T/C [10] 34.7% | viability, T/C [27] 41.7% | viability, T/C [35] 27.6% | viability, T/C [36] 17.3% | viability, T/C [37] 21.7% | viability, T/C [38] 35.6% | viability, T/C [15] 25.5% | viability, T/C [28] 29.6% | viability, T/C [39] 23.3% | viability, T/C [40] 9.41% | viability, T/C [41] 17.2% | viability, T/C [42] 29.5% | viability, T/C [20] 30.9% | viability, T/C [29] 35.1% | viability, T/C [43] 19.7% | viability, T/C [44] 3.69% | viability, T/C [45] 0.11% | viability, T/C [46] 35.2% | viability, T/C [25] 13.3%
0.144 µM: IC50 (second compound 0.1 µM)

O=C(c1cc(Cc2n[nH]c(=O)c3ccccc23)ccc1F)N1CCN(C(=O)C2CC2)CC1 + COc1cc2nc(C)nc(NC(C)c3cc(N)cc(C(F)(F)F)c3)c2cc1OC1CCOC1
inactive: viability, T/C [5] 60% | viability, T/C [26] 105% | viability, T/C [31] 59.7% | viability, T/C [32] 93.4% | viability, T/C [33] 120% | viability, T/C [34] 79.2% | viability, T/C [10] 54.1% | viability, T/C [27] 57.4% | viability, T/C [35] 55.9% | viability, T/C [36] 56.9% | viability, T/C [37] 64.4% | viability, T/C [38] 66.2% | viability, T/C [15] 103% | viability, T/C [28] 114% | viability, T/C [39] 126% | viability, T/C [40] 124% | viability, T/C [41] 103% | viability, T/C [42] 100% | viability, T/C [20] 47.7% | viability, T/C [29] 50.5% | viability, T/C [43] 49% | viability, T/C [44] 59.8% | viability, T/C [45] 56.9% | viability, T/C [46] 54.9% | viability, T/C [25] 60.5% | viability, T/C [30] 29.5% | viability, T/C [47] 26.1% | viability, T/C [48] 33.6% | viability, T/C [49] 20.9% | viability, T/C [50] 27.6%
0.0467 µM: IC50 (second compound 10 µM)
< 0.0316 µM: IC50 (second compound 3.16 µM)
> 10 µM: IC50 (second compound 0.1 µM) | IC50 (second compound 0.316 µM) | IC50 (second compound 1 µM)
